Assays:
CD40 = assay: Flow cytometry of CD40 expression on M1 TAM in tumors of KC-HPC mice; assay type: in vivo, mouse; conditions: KC-HPC-API vs KC-HPC mice
Procedure: The inventors then assessed the expression of CD40 (a T cell co-stimulation marker) on M1 TAM (gated as MHC-II^+ and CD206) within the tumor from KC-HPC vs. KC-HPC-API mice. […] The femur and tibia were cut at the pelvic-hip joint and muscle was removed. The femurs and tibias were cut at the ends and flushed with a 30-gauge needle and 10 cc syringe filled with completed RPMI media until bone was white onto a petri dish. Pelleted bone marrow (BM) cells were treated with Red Blood Cell (RBC) lysis buffer (eBioscience, Waltham, MA, USA), according to the manufacturer's instructions, and then filtered through a […] nylon mesh cell strainer in 1×PBS. All pancreatic tumors were manually cut into ˜1-2 mm^3 fragments with a sterile razor blade and then enzymatically digested with Collagenase, type IV (Sigma-Aldrich), DNase, type IV (Sigma-Aldrich) and Hyaluronidase, Type V (Sigma-Aldrich) in Hank's Balanced Salt Solution for 1 h, spun down and washed as described in previous studies^61. Digested pancreatic tumor samples were treated with RBC lysis buffer and then filtered through a […] nylon mesh cell strainer in 1×PBS. Bone marrow and digested pancreatic tumor single cell suspensions were counted with a hemocytometer and then resuspended in 3% FBS/PBS. […]

miR-155 = miR-155 gene expression in tumors of KC-HPC mice; assay type: in vivo, mouse; conditions: API 25 mg/kg IP three times per week for 17 days, vs vehicle
Procedure: To build on these findings, the inventors then used a novel pancreatic cancer cell line, UN-KC-6141, that resembles human PC due to its expression of a mutated Kras and generated mice harboring these tumor cells, called KC-HPC mice. Such mice were treated with API at a dose of 25 mg/kg (IP) three times per week for 17 days. The inventors examined if API also targets miR-155 and regulates SHIP-1 in the tumors from KC-HPC mouse model. […] The HPC models were euthanized 21-28 days post-injection, while the KC-HPC models were euthanized 16-17 days post-injection. miRNA extraction of PC cells (treated with miR-155 inhibitor and/or API), BM and digested pancreatic tumors cells was performed using a mirVana miRNA Isolation Kit (Applied Biosystems, Waltham, MA, USA) as per the manufacturer's instructions. miRNA was reverse transcribed into cDNA using TaqMan miRNA reverse transcription kit (Applied Biosystems) with gene-specific stem-loop RT primers according to the manufacturer's instructions. cDNA was then loaded onto either mmu-miR-155 or ipu-miR-155 TaqMan miRNA assays (Assay IDs: 002571 and 467534_mat) using TaqMan Fast Universal PCR Master mix (Applied Biosystems) and miR-155 detected with an Eppendorf Master cycler real plex 4. […]

O=c1cc(-c2ccc(O)cc2)oc2cc(O)cc(O)c12 [API, 40,5,7-Trihydroxyflavone, 5,7-Dihydroxy-2-(4-hydroxyphenyl)-4-benzopyrone]
CD40 expression on M1 TAM in tumor (CD40): significantly upregulated
miR-155 gene expression in tumor (miR-155): significantly reduced
